In US12116359B2, “EBNA1 inhibitor crystalline forms, and methods of preparing and using same” (THE WISTAR INSTITUTE, priority 2018, dated 2024):
Entries after “also recorded” stand apart in the source; their conditions may differ.

Legend:
Format in all cases: physicochemical
[1] = Variable temperature XRPD; conditions: 25-165° C.
Description: Samples run under non-ambient conditions were mounted on a silicon wafer with heat-conducting compound. The sample was then heated to the appropriate temperature at 30° C./min and subsequently held isothermally for 1 minute before data collection was initiated.

[2] = Storage stability of solid forms at elevated temperature/humidity (XRPD, HPLC purity); conditions: one week
Description: Purity analysis was performed on an Agilent HP1100 series system equipped with a diode array detector and using ChemStation software vB.04.03 using the method detailed in Table 1.
Amorphous (I) free acid was stored at 40° C./75% RH (open vial), 25° C./97% RH (open vial) and 60° C. (closed vial, ambient humidity) for 8 weeks.
Characterization by XRPD, ^1H NMR, TGA, DSC and storage at 40° C./75% RH for one week was carried out. Details are found in Table 10.

[3] = Stability assessment of Pattern 5 slurried in solvents at 4 or 50° C.; conditions: for Solid form recovered in stability assessment: 4 and 50° C., 8 solvents including solvent mixtures, XRPD; for Observations Overnight at 4° C. maturation / Observations Overnight at 50° C. maturation: 16 h
Description: The aim of this set of experiments was to test the stability of Pattern 5 in different conditions by slurring the material at either 4 or 50° C. in a range of 8 selected solvents including mixtures.
The supplied material was dissolved or suspended in the chosen solvent at r.t. Solvents were added in 10 vol. aliquots up to 30 vol. and observations were recorded; if a solution was obtained at any point then no further additions were made. Samples were kept at 4° C. or 50° C. over 16 h, and analyzed by XRPD. The solids were filtered and analyzed by XRPD. The solutions were allowed to evaporate at r.t. to afford solids which were also analyzed by XRPD.

[4] = Gravimetric vapour sorption (GVS); conditions: for Hygroscopicity: GVS, 0-90% RH
Description: Sorption isotherms were obtained using a SMS DVS Intrinsic moisture sorption analyzer, controlled by DVS Intrinsic Control software. The sample temperature was maintained at 25° C. by instrument controls. The humidity was controlled by mixing streams of dry and wet nitrogen, with a total flow rate of 200 ml/min. The relative humidity was measured by a calibrated Rotronic probe (dynamic range of 1.0-100% RH), located near the sample. The weight change (mass relaxation) of the sample as a function of % RH was constantly monitored by the microbalance (accuracy ±0.005 mg). Typically 5-20 mg of sample was placed in a tared mesh stainless steel basket under ambient conditions. The sample was loaded and unloaded at 40% RH and 25° C. (typical room conditions). A moisture sorption isotherm was performed as outlined below (2 scans giving 1 complete cycle). The standard isotherm was performed at 25° C. at 10% RH intervals over a 0-90% RH range. Data analysis was carried out using Microsoft Excel. The sample was recovered after completion of the isotherm and re-analyzed by XRPD.

[5] = Storage stability of solid forms at elevated temperature/humidity (XRPD, HPLC purity); conditions: 25° C./97% RH, one week; listed as Crystalline Pattern 5
[6] = listed as Crystalline Pattern 5
[7] = EtOAc, solid after evaporation at r.t.
[8] = EtOAc/EtOH (1:3), solid after evaporation at r.t.
[9] = EtOAc/EtOH (3:1), solid after evaporation at r.t.

## O=C(O)c1cccc(C#Cc2ccc(COC3CCOCC3)cc2)c1-c1ccc2cc[nH]c2c1 [Pattern 5, 2-(1H-Indol-6-yl)-3-[4-(tetrahydro-pyran-4-yloxymethyl)-phenylethynyl]-benzoic acid]
[1]
  Variable temperature XRPD: remained as Pattern 5
[1]; [6]
  Variable temperature XRPD: Remained as Pattern 5 from 25-165 °C
[2]; 25° C./97% RH
  XRPD post 25° C./97% RH: remained unchanged by XRPD
[2]; 25° C./97% RH, initial purity 98.3% A.U.C.
  HPLC Purity after storage at 25° C./97% RH (Pharmorphix generic method): 98.0 % A.U.C.
[2]; 40° C./75% RH
  XRPD post 40° C./75% RH: remained unchanged by XRPD
[2]; 40° C./75% RH, initial purity 98.3% A.U.C.
  HPLC Purity after storage at 40° C./75% RH (Pharmorphix generic method): 98.0 % A.U.C.
[2]; 40° C./75% RH, listed as Crystalline Pattern 5
  XRPD post 40° C./75% RH: No change in crystalline form; also recorded: Unchanged
[3]
  Solid form recovered in stability assessment: no change in solid form
[3]; [6]
  Solid form recovered in stability assessment: Pattern 5 being recovered in all cases
[3]; EtOAc
  Observations Overnight at 4° C. maturation: solution
  Observations Overnight at 50° C. maturation: solution
[3]; [7]
  XRPD after stability assessment at 4° C.: Pattern 5
  XRPD after stability assessment at 50° C.: Pattern 5
[3]; EtOAc/EtOH (1:3)
  Observations Overnight at 4° C. maturation: solution
  Observations Overnight at 50° C. maturation: solution + yellow solid
[3]; [8]
  XRPD after stability assessment at 4° C.: Pattern 5
  XRPD after stability assessment at 50° C.: Pattern 5
[3]; EtOAc/EtOH (3:1)
  Observations Overnight at 4° C. maturation: solution
  Observations Overnight at 50° C. maturation: solution + yellow solid
[3]; [9]
  XRPD after stability assessment at 4° C.: Pattern 5
  XRPD after stability assessment at 50° C.: Pattern 5
[3]; EtOH
  XRPD after stability assessment at 4° C.: Pattern 5
  Observations Overnight at 4° C. maturation: White Suspension
  Observations Overnight at 50° C. maturation: solution
[3]; EtOH, solid after evaporation at r.t.
  XRPD after stability assessment at 50° C.: Pattern 5
[3]; Heptane
  XRPD after stability assessment at 4° C.: Pattern 5
  Observations Overnight at 4° C. maturation: White Suspension
  XRPD after stability assessment at 50° C.: Pattern 5
  Observations Overnight at 50° C. maturation: White Suspension
[3]; IPA
  XRPD after stability assessment at 4° C.: Pattern 5
  Observations Overnight at 4° C. maturation: White Suspension
  Observations Overnight at 50° C. maturation: solution + yellow solid
[3]; IPA, solid after evaporation at r.t.
  XRPD after stability assessment at 50° C.: Pattern 5
[3]; MIBK
  XRPD after stability assessment at 4° C.: Pattern 5
  Observations Overnight at 4° C. maturation: Off-White Suspension
  Observations Overnight at 50° C. maturation: solution
[3]; MIBK, solid after evaporation at r.t.
  XRPD after stability assessment at 50° C.: Pattern 5
[3]; TBME
  XRPD after stability assessment at 4° C.: Pattern 5
  Observations Overnight at 4° C. maturation: White Suspension
  XRPD after stability assessment at 50° C.: Pattern 5
  Observations Overnight at 50° C. maturation: White Suspension
[4]
  Hygroscopicity: non-hygroscopic
[4]; [6]
  Hygroscopicity: non-hygroscopic; also recorded: not hygroscopic
[4]; after 0-90% RH isotherm, listed as Crystalline Pattern 5
  XRPD after GVS: Unchanged by XRPD
[4]; between 0-90% RH, 25° C., listed as Crystalline Pattern 5
  GVS moisture uptake: 0.3%
[5]
  XRPD post 25° C./97% RH: No change in crystalline form; also recorded: Unchanged
